# Values of other authors in US20260248729A1, “NOVEL ORAL DOSAGE FORM” (Neon Healthcare Ltd, priority 2022, published 2026).
# [1] = administered orally in the form of phenelzine sulfate
smiles,measurement,setting,value
"NNCCc1ccccc1 [Phenelzine, 2-phenylethylhydrazine]",Time to peak plasma concentration,[1],43 min
same,half-life,[1],11.6 h
same,"major metabolites phenylacetic acid and parahydroxyphenylacetic acid recovered, of the excreted dose of phenelzine in the urine",over the course of 96 hours after single doses,about 73%
